Data published in patent US8664220B2, “Polycyclic compounds as lysophosphatidic acid receptor antagonists” (Amira Pharmaceuticals, Inc., priority 2009, dated 2014).

biological target: T1, human LPA1 (Homo sapiens, UniProt Q92633); test: LPA1 calcium flux assay; format: cell-based; settings: human LPA1 expressing CHO cells, stimulated with 10 nM LPA; read-out: HLPA1 Ca Flux IC50
T1 construct: the full-length cDNA for human LPA1 was obtained by PCR of the reverse transcription reaction; expressed in transfected cells
Method in brief: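 CHO cells stably expressing human LPA1, serum-starved overnight and loaded with Calcium 4 dye in HBSS/20 mM Hepes/0.3% fatty-acid-free HSA, 1 h at 37 °C. Compounds pre-incubated 30 min at room temperature, then 10 nM LPA added; intracellular Ca2+ flux measured and IC50 from titration curves.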

T1 sequence (Q92633 whole entry): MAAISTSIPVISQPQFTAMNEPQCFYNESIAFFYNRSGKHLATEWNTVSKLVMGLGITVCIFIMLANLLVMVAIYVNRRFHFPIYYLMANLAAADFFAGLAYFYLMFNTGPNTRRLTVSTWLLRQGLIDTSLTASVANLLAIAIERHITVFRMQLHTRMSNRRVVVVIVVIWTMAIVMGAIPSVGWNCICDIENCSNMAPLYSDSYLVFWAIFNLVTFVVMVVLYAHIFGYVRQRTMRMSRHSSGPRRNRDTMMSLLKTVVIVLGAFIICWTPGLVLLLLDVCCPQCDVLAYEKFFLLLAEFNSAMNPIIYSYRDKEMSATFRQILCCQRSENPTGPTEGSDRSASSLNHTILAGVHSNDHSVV

Structure (SMILES)	IC50
Cc1noc(-c2ccc(-c3ccc(C4(CC(=O)O)CC4)cc3)cc2)c1C(O)CCCc1ccc(Oc2ccccc2)cc1 (stereo not shown) [Compound 1-33, [1-(4′-{-4-[1-Hydroxy-4-(4-phenoxy-phenyl)-butyl]-3-methyl-isoxazol-5-yl}-biphenyl-4-yl)-cyclopropyl]-acetic acid]	1 to 50 µM
Cc1noc(-c2ccc(-c3ccc(C4(C(=O)O)CC4)cc3)cc2)c1Nc1cccc(-c2cccc(C(F)(F)F)c2)n1 [Compound 1-77, 1-(4′-{3-Methyl-4-[6-(3-trifluoromethyl-phenyl)-pyridin-2-ylamino]-isoxazol-5-yl}-biphenyl-4-yl)-cyclopropanecarboxylic acid]	< 0.3 µM
Cc1noc(-c2ccc(-c3ccc(C4(C(=O)O)CC4)cc3)cc2)c1C(O)c1ccc(OCc2ccccc2)cc1 (stereo not shown) [Compound 1-54, 1-(4′-{4-[(4-Benzyloxy-phenyl)-hydroxy-methyl]-3-methyl-isoxazol-5-yl}-biphenyl-4-yl)-cyclopropanecarboxylic acid]	1 to 50 µM
Cc1noc(-c2ccc(-c3ccc(C4(C(=O)O)CC4)cc3)cc2)c1Cc1nnc(-c2ccccc2)o1 [Compound 1-8, 1-{4′-[3-Methyl-4-(5-phenyl[1,3,4]oxadiazol-2-ylmethyl)-isoxazol-5-yl]-biphenyl-4-yl}-cyclopropanecarboxylic acid]	< 0.3 µM
Cc1noc(-c2ccc(-c3ccc(CC(=O)O)cc3)cc2)c1Nc1cccc(-c2ccccc2)n1 [Compound 1-76, {4′-[3-Methyl-4-(6-phenyl-pyridin-2-ylamino)-isoxazol-5-yl]-biphenyl-4-yl}-acetic acid]	< 0.3 µM
Cc1noc(-c2ccc(-c3ccc(C4(C(=O)O)CC4)cc3)cc2)c1NC1CCCCC1Cc1ccccc1 (stereo not shown) [Compound 1-1, 1-{4′-[4-(2-Benzyl-cyclohexylamino)-3-methyl-isoxazol-5-yl]-biphenyl-4-yl}-cyclopropanecarboxylic acid]	< 0.3 µM
Cc1noc(-c2ccc(-c3ccc(C4(C(=O)O)CC4)cc3)cc2)c1C(O)c1cn(Cc2ccc(Cl)cc2)nn1 (stereo not shown) [Compound 1-62, 1-[4′-(4-{[1-(4-Chloro-benzyl)-1H-[1,2,3]triazol-4-yl]-hydroxy-methyl}-3-methyl-isoxazol-5-yl)-biphenyl-4-yl]-cyclopropanecarboxylic acid]	< 0.3 µM
Cc1noc(-c2ccc(-c3ccc(C4(CC(=O)O)CC4)cc3)cc2)c1NC1CCN(Cc2ccccc2)CC1 [Compound 1-37, (1-{4′-[4-(1-Benzyl-piperidin-4-ylamino)-3-methyl-isoxazol-5-yl]-biphenyl-4-yl}-cyclopropyl)-acetic acid]	1 to 50 µM
Cc1noc(-c2ccc(-c3ccc(C4(C(=O)O)CC4)cc3)cc2)c1C(O)c1cncc(Cc2ccccc2)c1 (stereo not shown) [Compound 1-59, 1-(4′-{4-[(5-Benzyl-pyridin-3-yl)-hydroxy-methyl]-3-methyl-isoxazol-5-yl}-biphenyl-4-yl)-cyclopropanecarboxylic acid]	< 0.3 µM
Cc1noc(-c2ccc(-c3ccc(C4(C(=O)O)CC4)cc3)cc2)c1NC1CCN(Cc2ccccc2)CC1 [Compound 1-36, 1-{4′-[4-(1-Benzyl-piperidin-4-ylamino)-3-methyl-isoxazol-5-yl]-biphenyl-4-yl}-cyclopropanecarboxylic acid]	1 to 50 µM
Cc1ccccc1Cn1cc(C(O)c2c(C)noc2-c2ccc(-c3ccc(C4(C(=O)O)CC4)cc3)cc2)nn1 (stereo not shown) [Compound 1-70, 1-[4′-(4-{Hydroxy-[1-(2-methyl-benzyl)-1H-[1,2,3]triazol-4-yl]-methyl}-3-methyl-isoxazol-5-yl)-biphenyl-4-yl]-cyclopropanecarboxylic acid]	< 0.3 µM
Cc1noc(-c2ccc(-c3ccc(C4(C(=O)O)CC4)cc3)cc2)c1-c1nnc(Cc2ccccc2)o1 [Compound 1-24, 1-{4′-[4-(5-Benzyl-[1,3,4]oxadiazol-2-yl)-3-methyl-isoxazol-5-yl]-biphenyl-4-yl}-cyclopropanecarboxylic acid]	1 to 50 µM
Cc1noc(-c2ccc(-c3ccc(CC(=O)O)cc3)cc2)c1C(O)c1cn(Cc2ccccc2)nn1 (stereo not shown) [Compound 1-48, (4′-{4-[(1-Benzyl-1H-[1,2,3]triazol-4-yl)-hydroxy-methyl]-3-methyl-isoxazol-5-yl}-biphenyl-4-yl)-acetic acid]	< 0.3 µM
Cc1noc(-c2ccc(-c3ccc(CC(=O)O)cc3)cc2)c1C(O)c1cn(Cc2ccc(Cl)c(Cl)c2)nn1 (stereo not shown) [Compound 1-65, [4′-(4-{[1-(3,4-Dichloro-benzyl)-1H-[1,2,3]triazol-4-yl]-hydroxy-methyl}-3-methyl-isoxazol-5-yl)-biphenyl-4-yl]-acetic acid]	1 to 50 µM

The remaining lines, values ahead:

IC50	Structure (SMILES)
1 to 50 µM	Cc1noc(-c2ccc(-c3ccc(C(=O)O)cc3)cc2)c1Nc1nnc(-c2ccccc2)o1 [Compound 1-142, 4′-[3-Methyl-4-(5-phenyl-[1,3,4]oxadiazol-2-ylamino)-isoxazol-5-yl]-biphenyl-4-carboxylic acid]
< 0.3 µM	Cc1noc(-c2ccc(-c3ccc(C4(C(=O)O)CC4)cc3)cc2)c1Nc1cccc(-c2cccnc2)c1 [Compound 1-103, 1-{4′-[3-Methyl-4-(3-pyridin-3-yl-phenylamino)-isoxazol-5-yl]-biphenyl-4-yl}-cyclopropanecarboxylic acid]
< 0.3 µM	Cc1noc(-c2ccc(-c3ccc(C4(C(=O)O)CC4)cc3)cc2)c1Nc1cccc(S(=O)(=O)c2ccccc2)n1 [Compound 1-128, 1-{4′-[4-(6-Benzenesulfonyl-pyridin-2-ylamino)-3-methyl-isoxazol-5-yl]-biphenyl-4-yl}-cyclopropanecarboxylic acid]
< 0.3 µM	Cc1noc(-c2ccc(-c3ccc(C4(C(=O)O)CC4)cc3)cc2)c1Nc1cccc(-c2ccccc2F)n1 [Compound 1-95, 1-(4′-{4-[6-(2-Fluoro-phenyl)-pyridin-2-ylamino]-3-methyl-isoxazol-5-yl}-biphenyl-4-yl)-cyclopropanecarboxylic acid]
< 0.3 µM	Cc1noc(-c2ccc(-c3ccc(C4(C(=O)O)CC4)cc3)cc2)c1NCc1cnc(-c2ccccc2)s1 [Compound 1-100, 1-(4′-{3-Methyl-4-[(2-phenyl-thiazol-5-ylmethyl)-amino]-isoxazol-5-yl}-biphenyl-4-yl)-cyclopropanecarboxylic acid]
< 0.3 µM	COc1ncccc1-c1cccc(Nc2c(C)noc2-c2ccc(-c3ccc(C4(C(=O)O)CC4)cc3)cc2)n1 [Compound 1-97, 1-{4′-[4-(2′-Methoxy-[2,3′]bipyridinyl-6-ylamino)-3-methyl-isoxazol-5-yl]-biphenyl-4-yl}-cyclopropanecarboxylic acid]
< 0.3 µM	Cc1noc(-c2ccc(-c3ccc(C4(C(=O)O)CC4)cc3)cc2)c1Nc1cccc(-c2cc(F)ccc2F)n1 [Compound 1-148, 1-(4′-{4-[6-(2,5-Difluoro-phenyl)-pyridin-2-ylamino]-3-methyl-isoxazol-5-yl}-biphenyl-4-yl)-cyclopropanecarboxylic acid]
< 0.3 µM	Cc1noc(-c2ccc(-c3ccc(C4(C(=O)O)CC4)cc3)cc2)c1Nc1cccc(N(C)c2ccccc2)c1 [Compound 1-106, 1-(4′-{3-Methyl-4-[3-(methyl-phenyl-amino)-phenylamino]-isoxazol-5-yl}-biphenyl-4-yl)-cyclopropanecarboxylic acid]
